Earlier results as cited in patent US20050287096A1, “Method for improving the appearance of skin” (priority 2004, published 2005).

Tested on: knee abrasions
Conditions: ointment containing 5% sucralfate, topical

sucralfate
stopping of fusion from the abrasions (knee abrasions caused by falls during a basketball game): fusion to be stopped after twenty four hours | healing of the abrasions (period after fusion stopped): good healing occurring over a three day period
